Our source for the T/C values is PubChem BioAssay AID192 (DTP/NCI, 2004).

Structures are written as SMILES. “And” between values parts separate entries of the source, which are not always exact repeats. Equal values may be shown once. Inconclusive results and toxic doses are left out.

The assay deals with BDF1 mice, B16 melanoma ip, median survival T/C. The assay can be described thus: NCI In Vivo Anticancer Drug Screen. Data for tumor model B16 Melanoma (intraperitoneal) in B6D2F1 (BDF1) mice. Conditions: endpoint: median survival time, higher = longer survival. A digest of the protocol:
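The ratio T/C compares compound-treated mice with vehicle-treated controls, using survival or tumor size as the endpoint in a transplantable tumor model.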

Setting [1] is: dose: 100.0 mg/kg/injection, schedule: Q01DX009 (ip), vehicle: saline with Tween-80.
Setting [2] is: dose: 200.0 mg/kg/injection, schedule: Q01DX009 (ip), vehicle: saline with Tween-80.
[3] abbreviates: dose: 400.0 mg/kg/injection, schedule: Q01DX009 (ip), vehicle: saline with Tween-80.
The mark [4] stands for this setting: dose: 100.0 mg/kg/injection, schedule: Q01DX009 (ip), vehicle: Klucel (hydroxypropylcellulose) (HPC).
Setting [5] is: dose: 200.0 mg/kg/injection, schedule: Q01DX009 (ip), vehicle: Klucel (hydroxypropylcellulose) (HPC).
Where [6] appears, read: dose: 400.0 mg/kg/injection, schedule: Q01DX009 (ip), vehicle: Klucel (hydroxypropylcellulose) (HPC).
Where [7] appears, read: dose: 50.0 mg/kg/injection, schedule: Q01DX009 (ip), vehicle: Klucel (hydroxypropylcellulose) (HPC).
The mark [8] stands for this setting: dose: 3.12 mg/kg/injection, schedule: Q01DX009 (ip), vehicle: Klucel (hydroxypropylcellulose) (HPC).
Setting [9] is: dose: 6.25 mg/kg/injection, schedule: Q01DX009 (ip), vehicle: Klucel (hydroxypropylcellulose) (HPC).
Where [10] appears, read: dose: 12.5 mg/kg/injection, schedule: Q01DX009 (ip), vehicle: Klucel (hydroxypropylcellulose) (HPC).

On to `CN(C(N)=O)C1CCCC1`, for which the T/C under setting [1] is 114 % of control, the T/C under setting [2] is 100 % of control and the T/C under setting [3] was 93 % of control.
As for `O=[N+]([O-])c1ccc(OCc2ccc(S(=O)(=O)F)c(Cl)c2)c(Cl)c1`, the T/C is 102 % of control under setting [4], 100 % of control under setting [5] and 97 % of control under setting [6].
Take `N#CC(Nc1ccccc1)c1ccccc1` (stereo not drawn): the T/C under setting [7] was 100 % of control and the T/C under setting [4] was 94 % of control.
Take `OC(CC(O)(C(F)(F)F)C(F)(F)F)CC(O)(C(F)(F)F)C(F)(F)F`: the T/C is 114 % of control (dose: 6.25 mg/kg/injection, schedule: Q01DX009 (ip), vehicle: saline with Tween-80); 92 % of control (dose: 6.25 mg/kg/injection, schedule: Q04DX003 (ip), vehicle: saline); 97 % of control (dose: 12.5 mg/kg/injection, schedule: Q01DX009 (ip), vehicle: saline with Tween-80); 97 % of control (dose: 12.5 mg/kg/injection, schedule: Q04DX003 (ip), vehicle: saline); 108 % of control (dose: 25.0 mg/kg/injection, schedule: Q01DX009 (ip), vehicle: saline with Tween-80); 105 % of control (dose: 25.0 mg/kg/injection, schedule: Q04DX003 (ip), vehicle: saline).
With `CCOC(=O)C(CC)c1ccccc1` (stereo not drawn), the T/C (dose: 50.0 mg/kg/injection, schedule: Q01DX009 (ip), vehicle: saline with Tween-80) is 91 % of control and the T/C under setting [1] was 95 % of control.
Turning to `COc1cccc(OC)c1OC(=O)/C=C\C(=O)Oc1c(OC)cccc1OC`, the T/C is 100 % of control (dose: 75.0 mg/kg/injection, schedule: Q01DX009 (ip), vehicle: Klucel (hydroxypropylcellulose) (HPC)); 100 % of control (dose: 150.0 mg/kg/injection, schedule: Q01DX009 (ip), vehicle: Klucel (hydroxypropylcellulose) (HPC)); 100 % of control (dose: 300.0 mg/kg/injection, schedule: Q01DX009 (ip), vehicle: Klucel (hydroxypropylcellulose) (HPC)).
Regarding `Cc1cccc(C)c1NC(=O)Nc1ccc(Cl)cc1`, the T/C under setting [4] was 93 % of control, the T/C under setting [5] is 93 % of control and the T/C under setting [6] is 87 % of control.
As for `O=C(OC1CCCCCCC1)C(F)(F)F`, the T/C is, setting by setting: under setting [4], 100 % of control; under setting [6], 117 % of control.
As to `COC(=O)C1C2CC3c4[nH]c5ccc(OC)cc5c4CCN3CC2CC(OC(=O)c2cc(OC)c(OC)c(OC)c2)C1OC` (stereo not drawn), the T/C is, setting by setting: (dose: 0.17 mg/kg/injection, schedule: Q01DX009 (ip), vehicle: Klucel (hydroxypropylcellulose) (HPC)) 88 % of control; (dose: 0.35 mg/kg/injection, schedule: Q01DX009 (ip), vehicle: Klucel (hydroxypropylcellulose) (HPC)) 110 % of control; (dose: 1.42 mg/kg/injection, schedule: Q01DX009 (ip), vehicle: Klucel (hydroxypropylcellulose) (HPC)) 91 % of control; (dose: 2.85 mg/kg/injection, schedule: Q01DX009 (ip), vehicle: Klucel (hydroxypropylcellulose) (HPC)) 89 % of control; (dose: 22.81 mg/kg/injection, schedule: Q01DX009 (ip), vehicle: Klucel (hydroxypropylcellulose) (HPC)) 100 % of control; (dose: 45.62 mg/kg/injection, schedule: Q01DX009 (ip), vehicle: Klucel (hydroxypropylcellulose) (HPC)) 98 % of control.
With `O=C(NC(Cc1ccccc1)C(=O)O)OCC1c2ccccc2-c2ccccc21` (stereo not drawn), the T/C was 106 % of control under setting [7] and 114 % of control under setting [4].
With `Cc1cccc(NC(=O)Nc2ccccc2)c1C`, the T/C under setting [4] was 100 % of control.
As to `CC(C)=CCC(O)C1=CC(=O)c2c(O)ccc(O)c2C1=O` (stereo not drawn), the T/C (dose: 1.25 mg/kg/injection, schedule: Q01DX009 (ip), vehicle: Klucel (hydroxypropylcellulose) (HPC)) was 107 % of control; the T/C (dose: 2.5 mg/kg/injection, schedule: Q01DX009 (ip), vehicle: Klucel (hydroxypropylcellulose) (HPC)) is 102 % of control; the T/C (dose: 5.0 mg/kg/injection, schedule: Q01DX009 (ip), vehicle: Klucel (hydroxypropylcellulose) (HPC)) is 92 % of control; the T/C (dose: 10.0 mg/kg/injection, schedule: Q01DX009 (ip), vehicle: Klucel (hydroxypropylcellulose) (HPC)) was 87 % of control.
With `CC(C)(C)c1ccc(CN2CCN(C(c3ccccc3)c3ccc(Cl)cc3)CC2)cc1` (stereo not drawn), the T/C (dose: 0.39 mg/kg/injection, schedule: Q01DX009 (ip), vehicle: Klucel (hydroxypropylcellulose) (HPC)) was 86 % of control; the T/C under setting [8] was 95 % of control; the T/C under setting [9] is 90 % of control; the T/C under setting [10] is 87 % of control; the T/C (dose: 175.0 nanograms/kg/injection, schedule: Q01DX009 (ip), vehicle: Klucel (hydroxypropylcellulose) (HPC)) was 105 % of control; the T/C (dose: 350.0 nanograms/kg/injection, schedule: Q01DX009 (ip), vehicle: Klucel (hydroxypropylcellulose) (HPC)) was 105 % of control. Moreover, the T/C was 101 % of control (dose: 700.0 nanograms/kg/injection, schedule: Q01DX009 (ip), vehicle: Klucel (hydroxypropylcellulose) (HPC)); 105 % of control (dose: 1400.0 nanograms/kg/injection, schedule: Q01DX009 (ip), vehicle: Klucel (hydroxypropylcellulose) (HPC)); 107 % of control (dose: 2800.0 nanograms/kg/injection, schedule: Q01DX009 (ip), vehicle: Klucel (hydroxypropylcellulose) (HPC)).
For `CC(CC(C)O)=NCCN=C(C)CC(C)O.[Ni]` (stereo not drawn), the T/C is, setting by setting: (dose: 1.5 mg/kg/injection, schedule: Q04DX003 (ip), vehicle: saline with Tween-80) 108 % of control; (dose: 2.0 mg/kg/injection, schedule: Q04DX003 (ip), vehicle: saline with Tween-80) 100 % of control; (dose: 3.0 mg/kg/injection, schedule: Q04DX003 (ip), vehicle: saline with Tween-80) 94 % of control; (dose: 4.5 mg/kg/injection, schedule: Q04DX003 (ip), vehicle: saline with Tween-80) 86 % of control.
Consider `CCCCCCCCCCCCNC(=O)Nc1cc(C)ccc1C`, for which the T/C under setting [4] was 92 % of control and the T/C under setting [5] is 96 % of control.
As for `NCCSC(C[N+](=O)[O-])c1ccc2c(c1)OCO2` (stereo not drawn), the T/C by setting is: (dose: 50.0 mg/kg/injection, schedule: Q04DX003 (ip), vehicle: saline with Tween-80) 102 % of control; (dose: 100.0 mg/kg/injection, schedule: Q04DX003 (ip), vehicle: saline with Tween-80) 105 % of control; (dose: 200.0 mg/kg/injection, schedule: Q04DX003 (ip), vehicle: saline with Tween-80) 105 % of control.
As to `c1ccc(CC[P+](c2ccccc2)(c2ccccc2)c2ccccc2)cc1`, the T/C was 92 % of control (dose: 0.78 mg/kg/injection, schedule: Q01DX009 (ip), vehicle: Klucel (hydroxypropylcellulose) (HPC)); 103 % of control (dose: 1.56 mg/kg/injection, schedule: Q01DX009 (ip), vehicle: Klucel (hydroxypropylcellulose) (HPC)); 92 % of control (dose: 3.13 mg/kg/injection, schedule: Q01DX009 (ip), vehicle: Klucel (hydroxypropylcellulose) (HPC)).
With `COc1ccccc1NC(=O)c1ccccc1`, the T/C is 97 % of control under setting [1], 107 % of control under setting [2] and 97 % of control under setting [3].
For `O=C(O)COc1ccc(OCC(=O)O)cc1`, the T/C by setting is: (dose: 0.75 mg/kg/injection, schedule: Q01DX009 (ip), vehicle: Klucel (hydroxypropylcellulose) (HPC)) 89 % of control; (dose: 1.5 mg/kg/injection, schedule: Q01DX009 (ip), vehicle: Klucel (hydroxypropylcellulose) (HPC)) 89 % of control.
As for `O=[N+]([O-])c1cccc2ncccc12`, the T/C by setting is: (dose: 50.0 mg/kg/injection, schedule: Q04DX003 (ip), vehicle: Klucel (hydroxypropylcellulose) (HPC)) 100 % of control; (dose: 100.0 mg/kg/injection, schedule: Q04DX003 (ip), vehicle: Klucel (hydroxypropylcellulose) (HPC)) 97 % of control; (dose: 200.0 mg/kg/injection, schedule: Q04DX003 (ip), vehicle: Klucel (hydroxypropylcellulose) (HPC)) 91 % of control.
Consider `CCCC(=O)OCc1cc(=O)n(C)c2c3c4c(cc12)c(C)cc(=O)n4CO3`, for which the T/C by setting is: under setting [8], 106 % of control; under setting [9], 101 % of control and 110 % of control; under setting [10], 120 % of control; under setting [7], 153 % of control.
`COc1ccccc1NC(=O)Oc1ccc(OCc2ccccc2)cc1`: the T/C runs as follows: under setting [1], 105 % of control; under setting [2], 97 % of control; under setting [3], 92 % of control.
